Test results published in US10759803B2, “Asparagine endopeptidase (AEP) inhibitors for managing cancer and compositions related thereto” (priority 2014, dated 2020).

What was measured:
[1] = molecular target: Cathepsin-L (Homo sapiens, UniProt P07711); test: Specificity assay against Cathepsin-L; format: biochemical
[2] = molecular target: T1, AEP (Homo sapiens, UniProt Q99538); test: IC50 assay with purified recombinant AEP; format: biochemical; details: purified active AEP; read-out: IC50 toward AEP
T1 construct: tested with purified active AEP, IC50 values for the top 8 candidates were found
T1 sequence (Q99538 18-323 limits assumed): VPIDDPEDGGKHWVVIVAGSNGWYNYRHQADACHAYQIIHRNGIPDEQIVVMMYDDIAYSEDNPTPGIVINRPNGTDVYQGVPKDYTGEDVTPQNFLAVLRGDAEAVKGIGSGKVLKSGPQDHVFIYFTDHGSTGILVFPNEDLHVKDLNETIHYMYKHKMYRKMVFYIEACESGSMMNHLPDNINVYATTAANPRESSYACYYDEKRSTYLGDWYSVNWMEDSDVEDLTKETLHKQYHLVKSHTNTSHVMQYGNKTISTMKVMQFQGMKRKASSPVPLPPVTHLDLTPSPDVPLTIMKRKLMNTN
Procedure: (§1) Purified recombinant enzyme was incubated with various concentrations of inhibitor in appropriate assay buffers in the presence of increasing concentrations of inhibitor. The formation of fluorescent product was monitored in duplicate reactions and the data was fit to appropriate equations to calculate the IC50 values.
(§2) To identify small-molecule inhibitors of AEP, a high-throughput screen was designed in conjunction with the Emory Chemical Biology Discovery Center. The screen incorporated mouse kidney lysates to assay a 54,384 compound library. […] Additional structural analysis and grouping allowed the compounds to be sorted into 8 distinct backbone families. […] The specificity of the compounds was also determined using four major cysteine proteases (FIG. 2).
Various concentrations of the appropriate compound were incubated with AEP reaction buffer (50 mM Sodium Citrate pH 5.5, 0.1% CHAPS, 60 mM Na2HPO4, 1 mM EDTA, final pH 6.0) and peptide substrate, 10 μM Cbz-Ala-Ala-Asn-AMC (Bachem). The reaction was initiated upon addition of 50 nM AEP and fluorescent product formation was monitored over 15 min. […] Data were analyzed with GraFit version 5.0.11 software package.

[3] = molecular target: Caspase-8 (Homo sapiens, UniProt Q14790); test: Specificity assay against Caspase-8; format: biochemical
Procedure: as §1, §2

[4] = tested on: Caco-2 monolayer; test: Caco-2 monolayer permeability screen; details: Table 1
Procedure: To explore the in vitro ADME profiles of the compounds, additional tests were conducted.

[5] = molecular target: CYP2D6 (Homo sapiens, UniProt P10635); test: CYP inhibition screening, CYP2D6; format: in vitro ADME
[6] = tested on: amyloid precursor protein (APP) cleavage; test: APP cleavage in OGD-treated primary cortical neurons; format: cell-based; details: 0.1 μM compound
Procedure: A. AEP activity, measured in primary neuronal cultures with 5 μM Cbz-Ala-Ala-Asn-AMC (x-axis denotes neurons were treated with 0.1 μM or 1.0 μM specified compound). B. Caspase activity, measured in primary neuronal cultures with 5 μM Ac-Asp-Glu-Val-Asp-AMC. C. Cathepsin activity, measured in primary neuronal cultures with 5 μM D-Val-Leu-Lys-AMC. D. Inhibition of APP cleavage. Lysates of primary cortical neurons pre-incubated with compounds for 30 min, underwent OGD for 4 hrs, were reperfused for 18 hrs (normoxia neurons remained at normoxic conditions). E. APP can be cleaved in a dose-dependent manner. Lysates of primary cortical neurons pre-incubated with compounds for 30 min, underwent OGD for 4 hrs, were reperfused for 18 hrs (normoxia neurons remained at normoxic conditions).
Depriving cells of oxygen and glucose is a cellular model that is employed to trigger acidosis in cultured cells. The efficacy of the compounds in a cellular model of oxygen-glucose deprivation (OGD) was determined in an effort to mimic the effects of stroke in primary cultured neurons. As a result of depriving neurons of oxygen and glucose-containing medium, AEP activity was doubled (FIG. 7A, ‘DMSO-Norm’ compared to ‘DMSO-OGD’), while Caspase-3 and Cathepsin activities remained relatively unchanged. […] Cleavage of APP is observed in response to only DMSO treatment (FIG. 7D, lane 2), and it appears that upon the treatment of 1 μM of compounds 10, 11, and 12, and just 0.1 μM of compound s31, 38 and 64, the cleavage was blocked, presumably due to AEP inhibition.

[7] = molecular target: CYP2C19 (Homo sapiens, UniProt P33261); test: CYP inhibition screening, CYP2C19; format: in vitro ADME
[8] = molecular target: CYP3A4 (Homo sapiens, UniProt P08684); test: CYP inhibition screening, CYP3A4-Midazolam; format: in vitro ADME
[9] = molecular target: CYP2C9 (Homo sapiens, UniProt P11712); test: CYP inhibition screening, CYP2C9; format: in vitro ADME
[10] = tested on: CYP3A; test: CYP inhibition screening, CYP3A-Testosterone; format: in vitro ADME
[11] = molecular target: T2, Caspase-3 (Homo sapiens, UniProt P42574); test: Specificity assay against Caspase-3; format: biochemical
T2 sequence (P42574 29-175 limits assumed): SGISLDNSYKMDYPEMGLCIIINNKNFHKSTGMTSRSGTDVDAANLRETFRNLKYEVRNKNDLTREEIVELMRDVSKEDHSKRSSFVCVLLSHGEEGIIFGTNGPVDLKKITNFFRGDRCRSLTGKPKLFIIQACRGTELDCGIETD
T2 sequence (P42574 176-277 limits assumed): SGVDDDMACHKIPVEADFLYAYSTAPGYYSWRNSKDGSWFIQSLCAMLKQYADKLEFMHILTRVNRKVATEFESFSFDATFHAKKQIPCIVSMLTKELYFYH
Procedure: as §1, §2

[12] = molecular target: Cathepsin-S (Homo sapiens, UniProt P25774); test: Specificity assay against Cathepsin-S; format: biochemical
Procedure: as §1, §2

[13] = molecular target: T3, CYP1A2 (Homo sapiens, UniProt P05177); test: CYP inhibition screening, CYP1A2; format: in vitro ADME
T3 sequence (P05177 1-516): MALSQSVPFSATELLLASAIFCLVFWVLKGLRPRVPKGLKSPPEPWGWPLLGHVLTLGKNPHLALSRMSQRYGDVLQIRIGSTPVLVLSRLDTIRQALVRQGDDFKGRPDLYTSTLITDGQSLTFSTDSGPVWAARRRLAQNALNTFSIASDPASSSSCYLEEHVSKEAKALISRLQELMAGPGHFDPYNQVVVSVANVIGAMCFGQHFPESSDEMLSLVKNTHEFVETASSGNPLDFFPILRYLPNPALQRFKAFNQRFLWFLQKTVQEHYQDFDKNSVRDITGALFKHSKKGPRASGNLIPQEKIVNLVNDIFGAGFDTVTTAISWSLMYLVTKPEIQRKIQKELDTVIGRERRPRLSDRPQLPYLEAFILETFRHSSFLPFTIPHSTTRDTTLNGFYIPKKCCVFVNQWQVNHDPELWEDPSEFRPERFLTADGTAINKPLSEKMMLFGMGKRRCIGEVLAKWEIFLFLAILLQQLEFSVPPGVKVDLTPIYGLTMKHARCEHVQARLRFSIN

Chain of CYP2C9 (P11712 whole entry): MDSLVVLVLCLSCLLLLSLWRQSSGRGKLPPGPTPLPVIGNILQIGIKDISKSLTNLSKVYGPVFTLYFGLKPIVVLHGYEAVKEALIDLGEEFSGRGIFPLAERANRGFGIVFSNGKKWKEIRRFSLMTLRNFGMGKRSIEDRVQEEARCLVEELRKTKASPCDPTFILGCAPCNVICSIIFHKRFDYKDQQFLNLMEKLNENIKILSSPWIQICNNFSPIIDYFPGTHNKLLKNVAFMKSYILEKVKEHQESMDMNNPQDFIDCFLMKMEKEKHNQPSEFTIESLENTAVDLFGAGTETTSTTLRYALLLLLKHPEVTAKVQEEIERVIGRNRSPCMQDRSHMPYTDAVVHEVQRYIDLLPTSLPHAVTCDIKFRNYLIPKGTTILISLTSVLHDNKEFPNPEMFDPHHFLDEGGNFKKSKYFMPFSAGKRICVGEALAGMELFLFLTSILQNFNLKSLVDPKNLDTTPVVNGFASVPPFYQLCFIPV
Chain of CYP2D6 (P10635 whole entry): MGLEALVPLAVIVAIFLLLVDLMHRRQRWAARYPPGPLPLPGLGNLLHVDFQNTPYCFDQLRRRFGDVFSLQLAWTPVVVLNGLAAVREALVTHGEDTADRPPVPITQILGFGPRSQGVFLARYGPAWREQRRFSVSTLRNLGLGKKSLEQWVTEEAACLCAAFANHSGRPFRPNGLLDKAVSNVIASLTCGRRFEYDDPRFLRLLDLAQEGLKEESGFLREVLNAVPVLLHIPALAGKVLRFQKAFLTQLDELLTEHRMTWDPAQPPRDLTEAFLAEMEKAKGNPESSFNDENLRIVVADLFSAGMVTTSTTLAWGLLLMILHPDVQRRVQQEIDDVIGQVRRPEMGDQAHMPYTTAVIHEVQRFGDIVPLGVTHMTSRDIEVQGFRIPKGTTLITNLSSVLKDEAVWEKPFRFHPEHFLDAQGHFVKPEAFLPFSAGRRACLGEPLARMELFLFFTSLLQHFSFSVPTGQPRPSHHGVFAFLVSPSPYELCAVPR
Chain of CYP3A4 (P08684 whole entry): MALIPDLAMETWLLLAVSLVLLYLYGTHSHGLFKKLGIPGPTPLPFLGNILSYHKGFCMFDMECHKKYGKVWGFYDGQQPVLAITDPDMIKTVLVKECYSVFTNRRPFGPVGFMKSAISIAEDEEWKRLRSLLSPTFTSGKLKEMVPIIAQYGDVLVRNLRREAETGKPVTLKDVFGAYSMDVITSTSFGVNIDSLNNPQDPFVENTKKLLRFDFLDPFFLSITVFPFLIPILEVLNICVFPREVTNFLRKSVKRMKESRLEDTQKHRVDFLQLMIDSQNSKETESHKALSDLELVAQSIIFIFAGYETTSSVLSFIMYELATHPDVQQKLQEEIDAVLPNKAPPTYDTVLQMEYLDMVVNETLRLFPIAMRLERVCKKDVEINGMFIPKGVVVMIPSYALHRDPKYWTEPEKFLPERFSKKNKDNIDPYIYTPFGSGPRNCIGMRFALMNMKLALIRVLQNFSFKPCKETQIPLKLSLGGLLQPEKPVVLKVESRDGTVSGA
Chain of CYP2C19 (P33261 whole entry): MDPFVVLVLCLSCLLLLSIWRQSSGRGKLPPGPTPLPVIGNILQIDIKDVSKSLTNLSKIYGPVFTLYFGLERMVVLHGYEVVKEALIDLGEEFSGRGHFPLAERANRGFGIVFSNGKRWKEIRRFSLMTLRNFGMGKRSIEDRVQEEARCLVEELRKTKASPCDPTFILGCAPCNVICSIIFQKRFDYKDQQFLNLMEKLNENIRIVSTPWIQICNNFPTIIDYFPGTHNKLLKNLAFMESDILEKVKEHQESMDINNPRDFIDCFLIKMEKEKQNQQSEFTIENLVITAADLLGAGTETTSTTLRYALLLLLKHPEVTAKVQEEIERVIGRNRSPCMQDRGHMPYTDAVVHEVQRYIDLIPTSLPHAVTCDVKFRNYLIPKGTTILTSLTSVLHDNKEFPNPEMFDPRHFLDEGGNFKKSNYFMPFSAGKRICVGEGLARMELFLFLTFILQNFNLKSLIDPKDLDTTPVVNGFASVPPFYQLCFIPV
Chain of Caspase-8 (Q14790 217-374 limits assumed, species assumed): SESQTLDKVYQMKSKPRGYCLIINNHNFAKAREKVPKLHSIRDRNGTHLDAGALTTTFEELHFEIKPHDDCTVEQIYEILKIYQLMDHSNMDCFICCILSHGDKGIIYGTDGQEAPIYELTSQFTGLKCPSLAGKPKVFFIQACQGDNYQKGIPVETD
Chain of Caspase-8 (Q14790 385-479 limits assumed, species assumed): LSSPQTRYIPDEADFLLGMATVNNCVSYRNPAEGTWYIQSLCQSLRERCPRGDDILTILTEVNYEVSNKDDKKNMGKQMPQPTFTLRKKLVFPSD
Chain of Cathepsin-L (P07711 114-333, species assumed): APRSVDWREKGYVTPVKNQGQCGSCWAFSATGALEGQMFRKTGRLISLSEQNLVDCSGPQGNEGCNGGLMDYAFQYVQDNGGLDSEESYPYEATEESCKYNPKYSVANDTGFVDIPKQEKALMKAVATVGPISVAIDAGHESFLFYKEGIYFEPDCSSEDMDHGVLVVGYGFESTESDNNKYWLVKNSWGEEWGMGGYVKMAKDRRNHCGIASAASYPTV
Chain of Cathepsin-S (P25774 115-331, species assumed): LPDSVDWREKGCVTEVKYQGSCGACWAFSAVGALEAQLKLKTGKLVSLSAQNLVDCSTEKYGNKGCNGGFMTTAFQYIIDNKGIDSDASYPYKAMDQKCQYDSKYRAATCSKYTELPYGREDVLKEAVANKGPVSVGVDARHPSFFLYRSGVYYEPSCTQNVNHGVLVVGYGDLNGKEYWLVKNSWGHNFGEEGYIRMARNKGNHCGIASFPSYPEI

CCN(CC)c1ccc(CN2CCc3nc(C)[nH]c(=O)c3C2)c(OC)c1 [Compound 64]
selectivity for AEP over Cathepsin-L [1]: over 40 fold | IC50 [2]: 2370 nM | selectivity for AEP over Caspase-8 [3]: over 40 fold | A −>B Papp [4]: <LLOQ | B −> A Papp [4]: <LLOQ | CYP2D6 inhibition ([5]; 3 μM): 34.6% | CYP2D6 inhibition ([5]; 10 μM): 58.3% | APP cleavage after OGD [6]: blocked | CYP2C19 inhibition ([7]; 3 μM): 31.6% | CYP2C19 inhibition ([7]; 10 μM): 20.4% | CYP3A4-Midazolam inhibition ([8]; 3 μM): 0.6% | CYP3A4-Midazolam inhibition ([8]; 10 μM): 10.1% | CYP2C9 inhibition ([9]; 3 μM): 4.6% | CYP2C9 inhibition ([9]; 10 μM): 7.9% | CYP3A-Testosterone inhibition ([10]; 3 μM): 1.5% | CYP3A-Testosterone inhibition ([10]; 10 μM): −0.1% | selectivity for AEP over Caspase-3 [11]: about 6 fold | selectivity for AEP over Cathepsin-S [12]: over 40 fold | CYP1A2 inhibition ([13]; 3 μM): 73.7% | CYP1A2 inhibition ([13]; 10 μM): 22.2%
